Data taken from US20100314319A1, “HALOGENATED AMIDES AS BIOCIDES FOR BIOFILM CONTROL” (priority 2009, published 2010).
Read-outs that look alike come from different tables or passages of the source.

Legend:
[1] = system: Biofilms of P. aeruginosa ATCC 10145; experiment: Efficacy against biofilm associated bacteria (Calgary biofilm device, viable sessile bacteria); format: cell-based; conditions: pH 8.5, 37° C.
Protocol: Biofilms of P. aeruginosa ATCC 10145 are grown in Calgary biofilm devices (Innovotech, Alberta, Canada) for 42 hours. Trypticase Soy Broth (TSB) is used in the biofilm devices as the culture medium. After the incubation period, loosely associated cells are removed from the biofilms that develop on the surfaces of the submerged pegs by rinsing with sterile 0.85% NaCl. The biofilms are than treated with DBMAL (inventive biocide), glutaraldehyde (comparative biocide), or DBNPA (comparative biocide). A dilute salts solution is used as the test medium for the efficacy studies. The salts solution contains (in grams per liter of deionized water) CaCl2, 0.2203 g; MgSO4, 0.1847 g; and NaHCO3, 0.2033 g. The final pH of the solution is adjusted to 8.5.
The concentrations of each active tested are 100 ppm, 50 ppm, 25 ppm, 12.5 ppm in the salts solution and the contact times are for 4 hours, 24 hours and 48 hours, respectively. In all cases, the incubation temperature is 37° C. Sterile deionized water is used as a non-biocide treated control. After each contact time, the pegs are washed with sterile 0.85% NaCl and the bacteria are released from the biofilm on the surface of each peg into sterile 0.85% NaCl by sonication (see Ceri et al., Journal of Clinical Microbiology 1999, 37: 1771-1776). The viable bacteria are then enumerated in TSB, using a serial dilution method.

[2] = system: Biofilms of P. aeruginosa ATCC 10145; experiment: Biofilm removal evaluation (crystal violet, OD 580 nm); format: cell-based; conditions: 25, 50, 100 ppm, 4 hr and 24 hr, 37° C.
Protocol: The Calgary biofilm device is used to prepare biofilms of P. aeruginosa ATCC 10145. TSB is used as the culture medium and biofilms are allowed to develop over a period of 42 hours. […] Concentrations of the actives tested are 25 ppm, 50 ppm, 100 ppm in sterile diluted salts solution as the test medium. The treatment is conducted at 37° C. for 4 hr and 24 hr, respectively. Sterile deionized water is used as an untreated control. After treatment, the pegs are washed with sterile 0.85% NaCl and then the biomass/biofilm on each peg is measured (see Stepanovic et al., Journal of Microbiological Methods, 2000, 40, 175-179). First the biofilm is fixed with 99% methanol and, after air drying, the pegs are stained with 2% (w/v) crystal violet and washed with tap water. The pegs are then air dried and the crystal violet bound to the biofilm is extracted with 33% glacial acetic acid. The optical density (OD) of the extracted solution is measured at 580 nm. The results are depicted in FIG. 2.

[3] = system: amoeba fed Legionella pneumophila (AfLp); format: cell-based; conditions: for Active concentration required for complete kill (6 log reduction): Amoeba fed Legionella
[4] = buffer
[5] = Stability against hydrolysis (HPLC level remaining in buffered dilute solutions)
Free Legionella = format: cell-based, Legionella pneumophila

In the case of `NC(=O)C(Br)(Br)C(N)=O` [DBMAL, 2,2-Dibromomalonamide], the “effectiveness against sessile bacteria (reduction of viable sessile bacteria)” value ([1]; 12.5-100 ppm, 4, 24 and 48 hours, in general) is reported as “more effective than DBNPA”, the “effectiveness against sessile bacteria (reduction of viable sessile bacteria)” value ([1]; 25 ppm active concentration, efficacy increases with contact time) is reported as “very effective” and the biofilm removal [2] is reported as “overall better biofilm removal than DBNPA”. For the same molecule, the “level needed for 6 log kill of AfLp relative to that needed for free cells” value ([3]; corresponding time points (2 and 24 hours)) was “about twice”, the “level remaining (HPLC)” value ([4]; 0 h, pH 6.9) was 3746 and the “level remaining (HPLC)” value ([4]; 0 h, pH 8) was 3866. The “level remaining (HPLC)” value ([4]; 0 h, pH 9) was 4576, the “level remaining (HPLC)” value ([4]; 2 h, pH 6.9) was 4612 and the “level remaining (HPLC)” value ([4]; 2 h, pH 8) was 4031. For the same molecule, the “level remaining (HPLC)” value ([4]; 2 h, pH 9) was 4022, the “level remaining (HPLC)” value ([4]; 24 h, pH 6.9) was 3857 and the “level remaining (HPLC)” value ([4]; 24 h, pH 8) was 4191. For the same molecule, the “level remaining (HPLC)” value ([4]; 24 h, pH 9) was 3891, the “level remaining (HPLC)” value ([4]; 48 h, pH 6.9) was 3935 and the “level remaining (HPLC)” value ([4]; 48 h, pH 8) was 4187. For the same molecule, the “level remaining (HPLC)” value ([4]; 48 h, pH 9) was 3603, the “level remaining (HPLC)” value ([4]; 72 h, pH 6.9) was 3966 and the “level remaining (HPLC)” value ([4]; 72 h, pH 8) was 4290. The “level remaining (HPLC)” value ([4]; 72 h, pH 9) was 4018, the “level remaining (HPLC)” value ([4]; 96 h, pH 6.9) was 4212 and the “level remaining (HPLC)” value ([4]; 96 h, pH 8) was 3883. For the same molecule, the “level remaining (HPLC)” value ([4]; 96 h, pH 9) was 3456, the “Calculated Percent Reduction of the Active Ingredient” value (shortened to “Calculated Percent Reduction”) ([5]; pH 6.9, T = 30 C., 48 hours) was 0% and the “Calculated Percent Reduction” value ([5]; pH 6.9, T = 30 C., 72 hours) was 0%. For the same molecule, the “Calculated Percent Reduction” value ([5]; pH 8, T = −1 C., 48 hours) was 0%, the “Calculated Percent Reduction” value ([5]; pH 8, T = −1 C., 72 hours) was 0% and the “Calculated Percent Reduction” value ([5]; pH 8, T = −1 C., 96 hours) was 0%. The “Calculated Percent Reduction” value ([5]; pH 9, T = −1 C., 48 hours) was 21%, the “Calculated Percent Reduction” value ([5]; pH 9, T = −1 C., 72 hours) was 12% and the “Calculated Percent Reduction” value ([5]; pH 9, T = −1 C., 96 hours) was 24%.
In the case of `N#CC(Br)(Br)C(N)=O` [DBNPA, 2,2-Dibromo-3-nitrilopropionamide], the “level remaining (HPLC)” value ([5]; pH 6.9, T = 30 C., 0 hours) is reported as 3991, the “level remaining (HPLC)” value ([5]; pH 6.9, T = 30 C., 2 hours) is reported as 4155 and the “level remaining (HPLC)” value ([5]; pH 6.9, T = 30 C., 24 hours) is reported as 2557. The “level remaining (HPLC)” value ([5]; pH 6.9, T = 30 C., 48 hours) was 1361, the “level remaining (HPLC)” value ([5]; pH 6.9, T = 30 C., 72 hours) was 918 and the “level remaining (HPLC)” value ([5]; pH 6.9, T = 30 C., 96 hours) was 658. The “level remaining (HPLC)” value ([5]; pH 8, T = −1 C., 0 hours) was 4068, the “level remaining (HPLC)” value ([5]; pH 8, T = −1 C., 2 hours) was 3998 and the “level remaining (HPLC)” value ([5]; pH 8, T = −1 C., 24 hours) was 3506. The “level remaining (HPLC)” value ([5]; pH 8, T = −1 C., 48 hours) was 3578, the “level remaining (HPLC)” value ([5]; pH 8, T = −1 C., 72 hours) was 3149 and the “level remaining (HPLC)” value ([5]; pH 8, T = −1 C., 96 hours) was 3070. The “level remaining (HPLC)” value ([5]; pH 9, T = −1 C., 0 hours) was 3842, the “level remaining (HPLC)” value ([5]; pH 9, T = −1 C., 2 hours) was 2818 and the “level remaining (HPLC)” value ([5]; pH 9, T = −1 C., 24 hours) was 1256. For the same molecule, the “level remaining (HPLC)” value ([5]; pH 9, T = −1 C., 48 hours) was 659, the “level remaining (HPLC)” value ([5]; pH 9, T = −1 C., 72 hours) was 363 and the “level remaining (HPLC)” value ([5]; pH 9, T = −1 C., 96 hours) was 239.
With `CCCCCCCCCC[N+](C)(C)CCCCCCCCCC.[Cl-]` [DDAC, didecyl dimethyl ammonium chloride] the “Active concentration required for complete kill (6 log reduction)” value (Free Legionella; 2 hours exposure) was 20 ppm, the “Active concentration required for complete kill (6 log reduction)” value (Free Legionella; 24 hours exposure) was 15 ppm and the “Active concentration required for complete kill (6 log reduction)” value ([3]; 2 hours exposure) was 60 ppm. The “Active concentration required for complete kill (6 log reduction)” value ([3]; 24 hours exposure) was 40 ppm.
For `O=CCCCC=O` [Glutaraldehyde], the “effectiveness against sessile bacteria (reduction of viable sessile bacteria)” value ([1]; 50 ppm active concentration, 48 h treatment) was “low effectiveness”, the “Active concentration required for complete kill (6 log reduction)” value (Free Legionella; 2 hours exposure) was 10 ppm and the “Active concentration required for complete kill (6 log reduction)” value (Free Legionella; 24 hours exposure) was 5 ppm. The “Active concentration required for complete kill (6 log reduction)” value ([3]; 2 hours exposure) was 20 ppm and the “Active concentration required for complete kill (6 log reduction)” value ([3]; 24 hours exposure) was 15 ppm.
